Experimental data as given in patent US12077503B2, “Substituted cyclic amides and their use as herbicides” (FMC CORPORATION, priority 2015, dated 2024).

Key:
Format in all cases: in vivo
[1] = system: giant foxtail (Setaria faberii); assay: Test A preemergence; settings: Setaria faberi, pre-emergence, 240 h, 0 to 100 scale where 0 is no effect and 100 is complete control, read-out: Foxtail, Giant plant response rating; for pest or weed control at 31 g/ha: 31 g ai/ha, Preemergence; for pest or weed control at 125 g/ha: 125 g ai/ha, preemergence, approx. 10 d
How it was run: (§1)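 Preemergence directed soil spray on seeded pots, or postemergence application to plants 2–10 cm, one- to two-leaf. Solvent mixture non-phytotoxic, with surfactant. Scored ~10 d later, visually, 0–100 vs untreated.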

[2] = system: Kochia (Kochia scoparia); assay: Test A preemergence; settings: Bassia scoparia, pre-emergence, 240 h, 0 to 100 scale where 0 is no effect and 100 is complete control, read-out: Kochia plant response rating; for pest or weed control at 31 g/ha: 31 g ai/ha, Preemergence; for pest or weed control at 125 g/ha: 125 g ai/ha, preemergence, approx. 10 d
How it was run: as §1

[3] = system: barnyardgrass (Echinochloa crus-galli); assay: Test A preemergence; settings: Echinochloa crus-galli, pre-emergence, 240 h, 0 to 100 scale where 0 is no effect and 100 is complete control, read-out: Barnyardgrass plant response rating; for pest or weed control at 31 g/ha: 31 g ai/ha, Preemergence; for pest or weed control at 125 g/ha: 125 g ai/ha, preemergence, approx. 10 d
How it was run: as §1

[4] = system: ragweed (common ragweed, Ambrosia elatior); assay: Test A preemergence; settings: Ambrosia artemisiifolia, pre-emergence, 240 h, 0 to 100 scale where 0 is no effect and 100 is complete control, read-out: Ragweed plant response rating; for pest or weed control at 31 g/ha: 31 g ai/ha, Preemergence; for pest or weed control at 125 g/ha: 125 g ai/ha, preemergence, approx. 10 d
How it was run: as §1

[5] = system: ryegrass, Italian (Italian ryegrass, Lolium multiflorum); assay: Test A preemergence; settings: Lolium multiflorum, pre-emergence, 240 h, 0 to 100 scale where 0 is no effect and 100 is complete control, read-out: Ryegrass, Italian plant response rating; for pest or weed control at 31 g/ha: 31 g ai/ha, Preemergence; for pest or weed control at 125 g/ha: 125 g ai/ha, preemergence, approx. 10 d
How it was run: as §1

[6] = system: pigweed (Amaranthus retroflexus); assay: Test A preemergence; settings: Amaranthus retroflexus, pre-emergence, 240 h, 0 to 100 scale where 0 is no effect and 100 is complete control, read-out: Pigweed plant response rating; for pest or weed control at 31 g/ha: 31 g ai/ha, Preemergence; for pest or weed control at 125 g/ha: 125 g ai/ha, preemergence, approx. 10 d
[7] = system: blackgrass (Alopecurus myosuroides); assay: Test A postemergence; settings: Alopecurus myosuroides, post-emergence, 240 h; for pest or weed control at 125 g/ha: 125 g ai/ha, postemergence, visual injury on 0 to 100 scale (0 no effect, 100 complete control), approx. 10 d, read-out: Blackgrass plant response rating; for pest or weed control at 31 g/ha: Postemergence, 31 g ai/ha, visual injury after approx. 10 d, 0 to 100 scale, 0 no effect, 100 complete control, read-out: Plant response rating, Blackgrass
How it was run: as §1

[8] = system: giant foxtail (Setaria faberii); assay: Test A postemergence; settings: Setaria faberi, post-emergence, 240 h; for pest or weed control at 125 g/ha: 125 g ai/ha, postemergence, visual injury on 0 to 100 scale (0 no effect, 100 complete control), approx. 10 d, read-out: Foxtail, Giant plant response rating; for pest or weed control at 31 g/ha: Postemergence, 31 g ai/ha, visual injury after approx. 10 d, 0 to 100 scale, 0 no effect, 100 complete control, read-out: Plant response rating, Foxtail, Giant
How it was run: as §1

[9] = system: Kochia (Kochia scoparia); assay: Test A postemergence; settings: Bassia scoparia, post-emergence, 240 h; for pest or weed control at 125 g/ha: 125 g ai/ha, postemergence, visual injury on 0 to 100 scale (0 no effect, 100 complete control), approx. 10 d, read-out: Kochia plant response rating; for pest or weed control at 31 g/ha: Postemergence, 31 g ai/ha, visual injury after approx. 10 d, 0 to 100 scale, 0 no effect, 100 complete control, read-out: Plant response rating, Kochia
How it was run: as §1

[10] = system: barnyardgrass (Echinochloa crus-galli); assay: Test A postemergence; settings: Echinochloa crus-galli, post-emergence, 240 h; for pest or weed control at 125 g/ha: 125 g ai/ha, postemergence, visual injury on 0 to 100 scale (0 no effect, 100 complete control), approx. 10 d, read-out: Barnyardgrass plant response rating; for pest or weed control at 31 g/ha: Postemergence, 31 g ai/ha, visual injury after approx. 10 d, 0 to 100 scale, 0 no effect, 100 complete control, read-out: Plant response rating, Barnyardgrass
How it was run: as §1

[11] = system: ragweed (common ragweed, Ambrosia elatior); assay: Test A postemergence; settings: Ambrosia artemisiifolia, post-emergence, 240 h; for pest or weed control at 125 g/ha: 125 g ai/ha, postemergence, visual injury on 0 to 100 scale (0 no effect, 100 complete control), approx. 10 d, read-out: Ragweed plant response rating; for pest or weed control at 31 g/ha: Postemergence, 31 g ai/ha, visual injury after approx. 10 d, 0 to 100 scale, 0 no effect, 100 complete control, read-out: Plant response rating, Ragweed
How it was run: as §1

[12] = system: wheat (Triticum aestivum); assay: Test A postemergence; settings: Triticum aestivum, post-emergence, 240 h; for plant injury at 125 g/ha: 125 g ai/ha, postemergence, visual injury on 0 to 100 scale (0 no effect, 100 complete control), approx. 10 d, read-out: Wheat plant response rating; for plant injury at 31 g/ha: Postemergence, 31 g ai/ha, visual injury after approx. 10 d, 0 to 100 scale, 0 no effect, 100 complete control, read-out: Plant response rating, Wheat
How it was run: as §1

[13] = system: ryegrass, Italian (Italian ryegrass, Lolium multiflorum); assay: Test A postemergence; settings: Lolium multiflorum, post-emergence, 240 h; for pest or weed control at 125 g/ha: 125 g ai/ha, postemergence, visual injury on 0 to 100 scale (0 no effect, 100 complete control), approx. 10 d, read-out: Ryegrass, Italian plant response rating; for pest or weed control at 31 g/ha: Postemergence, 31 g ai/ha, visual injury after approx. 10 d, 0 to 100 scale, 0 no effect, 100 complete control, read-out: Plant response rating, Ryegrass, Italian
How it was run: as §1

[14] = system: corn (Zea mays); assay: Test A postemergence; settings: Zea mays, post-emergence, 240 h; for plant injury at 125 g/ha: 125 g ai/ha, postemergence, visual injury on 0 to 100 scale (0 no effect, 100 complete control), approx. 10 d, read-out: Corn plant response rating; for Corn plant response rating (crop injury, 0 = no effect, 100 = complete kill) at 31 g/ha: Postemergence, 31 g ai/ha, visual injury after approx. 10 d, 0 to 100 scale, 100 complete control
How it was run: as §1

[15] = system: pigweed (Amaranthus retroflexus); assay: Test A postemergence; settings: Amaranthus retroflexus, post-emergence, 240 h; for pest or weed control at 125 g/ha: 125 g ai/ha, postemergence, visual injury on 0 to 100 scale (0 no effect, 100 complete control), approx. 10 d, read-out: Pigweed plant response rating; for pest or weed control at 31 g/ha: Postemergence, 31 g ai/ha, visual injury after approx. 10 d, 0 to 100 scale, 0 no effect, 100 complete control, read-out: Plant response rating, Pigweed
How it was run: as §1

[16] = system: Galium (catchweed bedstraw, Galium aparine); assay: Test A postemergence; settings: Galium, post-emergence, 240 h; for pest or weed control at 125 g/ha: 125 g ai/ha, postemergence, visual injury on 0 to 100 scale (0 no effect, 100 complete control), approx. 10 d, read-out: Galium plant response rating; for pest or weed control at 31 g/ha: Postemergence, 31 g ai/ha, visual injury after approx. 10 d, 0 to 100 scale, 0 no effect, 100 complete control, read-out: Plant response rating, Galium
How it was run: as §1

[17] = system: barnyardgrass (Echinochloa crus-galli); assay: Test B flooded paddy test; settings: Echinochloa crus-galli, 250 g ai/ha, Flood; 0 to 100 scale where 0 is no effect and 100 is complete control; read-out: Barnyardgrass plant response rating
How it was run: (§2)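 Greenhouse paddy pots with 2-leaf stage plants received compound by direct addition to floodwater 3 cm deep, kept at that level. Scored visually at 13–15 d versus controls (0 no effect; 100 complete control).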

[18] = system: ducksalad (Heteranthera limosa); assay: Test B flooded paddy test; settings: Heteranthera limosa, 250 g ai/ha, Flood; 0 to 100 scale where 0 is no effect and 100 is complete control; read-out: Ducksalad plant response rating
How it was run: as §2

[19] = system: sedge, umbrella (small-flower umbrella sedge, Cyperus difformis); assay: Test B flooded paddy test; settings: Cyperus difformis, 250 g ai/ha, Flood; 0 to 100 scale where 0 is no effect and 100 is complete control; read-out: Sedge, Umbrella plant response rating
How it was run: as §2

[20] = system: rice (Oryra sativa); assay: Test B flooded paddy test; settings: Oryza sativa, 250 g ai/ha, Flood; 0 to 100 scale where 0 is no effect and 100 is complete control; read-out: Rice plant response rating
How it was run: as §2

## Cc1ccc([C@H]2CN(C)C(=O)[C@@H]2C(=O)Nc2cc(F)c(F)c(F)c2F)cc1 [Compound 1071]
[1]
  pest or weed control at 31 g/ha: 90%
  pest or weed control at 125 g/ha: 100%
[2]
  pest or weed control at 31 g/ha: 0%
  pest or weed control at 125 g/ha: 0%
[3]
  pest or weed control at 31 g/ha: 40%
  pest or weed control at 125 g/ha: 90%
[4]
  pest or weed control at 31 g/ha: 0%
  pest or weed control at 125 g/ha: 0%
[5]
  pest or weed control at 31 g/ha: 0%
  pest or weed control at 125 g/ha: 0%
[6]
  pest or weed control at 31 g/ha: 0%
  pest or weed control at 125 g/ha: 0%
[7]
  pest or weed control at 125 g/ha: 0%
  pest or weed control at 31 g/ha: 0%
[8]
  pest or weed control at 125 g/ha: 80%
  pest or weed control at 31 g/ha: 20%
[9]
  pest or weed control at 125 g/ha: 0%
  pest or weed control at 31 g/ha: 0%
[10]
  pest or weed control at 125 g/ha: 90%
  pest or weed control at 31 g/ha: 30%
[11]
  pest or weed control at 125 g/ha: 0%
  pest or weed control at 31 g/ha: 0%
[12]
  plant injury at 125 g/ha: 0%
  plant injury at 31 g/ha: 0%
[13]
  pest or weed control at 125 g/ha: 0%
  pest or weed control at 31 g/ha: 0%
[14]
  plant injury at 125 g/ha: 0%
  Corn plant response rating (crop injury, 0 = no effect, 100 = complete kill) at 31 g/ha: 0%
[15]
  pest or weed control at 125 g/ha: 0%
  pest or weed control at 31 g/ha: 0%
[16]
  pest or weed control at 125 g/ha: 0%
  pest or weed control at 31 g/ha: 0%
[17]
  pest or weed control at 250 g/ha: 40%
[18]
  pest or weed control at 250 g/ha: 98%
[19]
  pest or weed control at 250 g/ha: 0%
[20]
  pest or weed control at 250 g/ha: 0%

## CN1C[C@H](c2csc3c2CCCC3)[C@@H](C(=O)Nc2ccccc2S(C)(=O)=O)C1=O [Compound 1080]
[1]
  pest or weed control at 31 g/ha: 0%
  pest or weed control at 125 g/ha: 0%
[2]
  pest or weed control at 31 g/ha: 0%
  pest or weed control at 125 g/ha: 10%
[3]
  pest or weed control at 31 g/ha: 0%
  pest or weed control at 125 g/ha: 0%
[4]
  pest or weed control at 31 g/ha: 0%
  pest or weed control at 125 g/ha: 0%
[5]
  pest or weed control at 31 g/ha: 0%
  pest or weed control at 125 g/ha: 0%
[6]
  pest or weed control at 31 g/ha: 0%
  pest or weed control at 125 g/ha: 0%
[7]
  pest or weed control at 125 g/ha: 0%
  pest or weed control at 31 g/ha: 0%
[8]
  pest or weed control at 125 g/ha: 0%
  pest or weed control at 31 g/ha: 0%
[9]
  pest or weed control at 125 g/ha: 0%
  pest or weed control at 31 g/ha: 0%
[10]
  pest or weed control at 125 g/ha: 50%
  pest or weed control at 31 g/ha: 0%
[11]
  pest or weed control at 125 g/ha: 0%
  pest or weed control at 31 g/ha: 0%
[12]
  plant injury at 125 g/ha: 0%
  plant injury at 31 g/ha: 0%
[13]
  pest or weed control at 125 g/ha: 0%
  pest or weed control at 31 g/ha: 0%
[14]
  plant injury at 125 g/ha: 0%
  Corn plant response rating (crop injury, 0 = no effect, 100 = complete kill) at 31 g/ha: 0%
[15]
  pest or weed control at 125 g/ha: 0%
  pest or weed control at 31 g/ha: 0%
[16]
  pest or weed control at 125 g/ha: 0%
  pest or weed control at 31 g/ha: 0%
[17]
  pest or weed control at 250 g/ha: 50%
[18]
  pest or weed control at 250 g/ha: 40%
[19]
  pest or weed control at 250 g/ha: 0%
[20]
  pest or weed control at 250 g/ha: 15%
